Data taken from US10858356B2, “Pyrazolopyridine derivative having GLP-1 receptor agonist effect” (Chugai Seiyaku Kabushiki Kaisha, priority 2016, dated 2020).

What follows are compounds tested against human GLP1R (Homo sapiens (Human), UniProt P43220) (assay: In vitro cAMP signal activation in human GLP1R stably-expressing cell line (hGLP1R-HEK293)). Details: cAMP concentration in hGLP1R-HEK293; 100% = 1 nM human GLP-1 (7-37).
human GLP1R, sequence (P43220 24-463): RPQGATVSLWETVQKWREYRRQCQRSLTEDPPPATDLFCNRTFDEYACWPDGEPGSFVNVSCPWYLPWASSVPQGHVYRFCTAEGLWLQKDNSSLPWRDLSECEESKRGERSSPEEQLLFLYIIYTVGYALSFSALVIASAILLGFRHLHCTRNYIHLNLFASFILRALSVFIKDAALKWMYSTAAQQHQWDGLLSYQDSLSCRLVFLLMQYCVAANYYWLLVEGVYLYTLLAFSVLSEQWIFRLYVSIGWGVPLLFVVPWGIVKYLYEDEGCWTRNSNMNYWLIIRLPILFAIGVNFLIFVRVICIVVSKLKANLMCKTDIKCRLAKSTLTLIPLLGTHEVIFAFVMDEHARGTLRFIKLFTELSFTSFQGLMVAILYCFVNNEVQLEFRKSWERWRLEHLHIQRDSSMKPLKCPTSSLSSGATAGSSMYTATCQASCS
Assay type: cell-based
With `Cc1cc(-n2nc3c(c2-n2ccn(-c4ccc5c(cnn5C)c4F)c2=O)[C@H](C)N(C(=O)c2cc4cc([C@H]5CCOC(C)(C)C5)ccc4n2[C@@]2(c4noc(=O)[nH]4)C[C@@H]2C)CC3)ccc1F` [compound 69, 3-[(1S,2S)-1-[5-[(4S)-2,2-dimethyloxan-4-yl]-2-[(4S)-3-[3-(4-fluoro-1-methylindazol-5-yl)-2-oxoimidazol-1-yl]-2-(4-fluoro-3-methylphenyl)-4-methyl-6,7-dihydro-4H-pyrazolo[4,3-c]pyridine-5-carbonyl]indol-1-yl]-2-methylcyclopropyl]-4H-1,2,4-oxadiazol-5-one] the EC50 was 2.8 nM.
In the case of `Cc1cc(-n2nc3c(c2-n2ccn(-c4ccc5c(cnn5CC(C)(C)O)c4F)c2=O)[C@H](C)N(C(=O)c2cc4cc([C@H]5CCOC(C)(C)C5)ccc4n2[C@@]2(c4noc(=O)[nH]4)C[C@@H]2C)CC3)cc(C)c1F` [Example 38, 3-[(1S,2S)-1-[5-[(4S)-2,2-dimethyloxan-4-yl]-2-[(4S)-2-(4-fluoro-3,5-dimethylphenyl)-3-[3-[4-fluoro-1-(2-hydroxy-2-methylpropyl)indazol-5-yl]-2-oxoimidazol-1-yl]-4-methyl-6,7-dihydro-4H-pyrazolo[4,3-c]pyridine-5-carbonyl]indol-1-yl]-2-methylcyclopropyl]-4H-1,2,4-oxadiazol-5-one], the EC50 is reported as 1.7 nM.
For `COCCn1ncc2c(F)c(-n3ccn(-c4c5c(nn4-c4cc(C)c(Cl)c(C)c4)CCN(C(=O)c4cc6cc(C7CCOCC7)ccc6n4[C@@]4(c6noc(=O)[nH]6)C[C@@H]4C)[C@H]5C)c3=O)ccc21` [Example 45, 3-[(1S,2S)-1-[2-[(4S)-2-(4-chloro-3,5-dimethylphenyl)-3-[3-[4-fluoro-1-(2-methoxyethyl)indazol-5-yl]-2-oxoimidazol-1-yl]-4-methyl-6,7-dihydro-4H-pyrazolo[4,3-c]pyridine-5-carbonyl]-5-(oxan-4-yl)indol-1-yl]-2-methylcyclopropyl]-4H-1,2,4-oxadiazol-5-one], the EC50 was 1.6 nM.
`CCc1nccc(-c2ccc3c(c2)cc(C(=O)N2CCc4nn(-c5cc(C)c(F)c(C)c5)c(-n5ccn(-c6ccc7c(cnn7C)c6)c5=O)c4C2)n3[C@@]2(c3noc(=O)[nH]3)C[C@@H]2C)c1C` [Example 2, 3-[(1S,2S)-1-[5-(2-ethyl-3-methylpyridin-4-yl)-2-[2-(4-fluoro-3,5-dimethylphenyl)-3-[3-(1-methylindazol-5-yl)-2-oxoimidazol-1-yl]-6,7-dihydro-4H-pyrazolo[4,3-c]pyridine-5-carbonyl]indol-1-yl]-2-methylcyclopropyl]-4H-1,2,4-oxadiazol-5-one] showed an EC50 of 5.6 nM.
For `COCCn1ncc2c(F)c(-n3ccn(-c4c5c(nn4-c4cc(C)c(Cl)c(C)c4)CCN(C(=O)c4cc6cc([C@H]7CCOC(C)(C)C7)ccc6n4[C@@]4(c6noc(=O)[nH]6)C[C@@H]4C)[C@H]5C)c3=O)ccc21` [Example 43, 3-[(1S,2S)-1-[2-[(4S)-2-(4-chloro-3,5-dimethylphenyl)-3-[3-[4-fluoro-1-(2-methoxyethyl)indazol-5-yl]-2-oxoimidazol-1-yl]-4-methyl-6,7-dihydro-4H-pyrazolo[4,3-c]pyridine-5-carbonyl]-5-[(4S)-2,2-dimethyloxan-4-yl]indol-1-yl]-2-methylcyclopropyl]-4H-1,2,4-oxadiazol-5-one], the EC50 was 1.5 nM.
`Cc1cc(-n2nc3c(c2-n2ccn(-c4ccc5c(cnn5C)c4Cl)c2=O)[C@H](C)N(C(=O)c2cc4cc([C@H]5CCOC(C)(C)C5)ccc4n2[C@@]2(c4noc(=O)[nH]4)C[C@@H]2C)CC3)cc(C)c1F` [compound 68, 3-[(1S,2S)-1-[2-[(4S)-3-[3-(4-chloro-1-methylindazol-5-yl)-2-oxoimidazol-1-yl]-2-(4-fluoro-3,5-dimethylphenyl)-4-methyl-6,7-dihydro-4H-pyrazolo[4,3-c]pyridine-5-carbonyl]-5-[(4S)-2,2-dimethyloxan-4-yl]indol-1-yl]-2-methylcyclopropyl]-4H-1,2,4-oxadiazol-5-one] gave an EC50 of 1.8 nM.
`Cc1cc(-n2nc3c(c2-n2ccn(-c4cc5cnn(C)c5cc4F)c2=O)[C@H](C)N(C(=O)c2cc4cc(C5CCOCC5)ccc4n2[C@@]2(c4noc(=O)[nH]4)C[C@@H]2C)CC3)cc(C)c1F` [Example 27, 3-[(1S,2S)-1-[2-[(4S)-2-(4-fluoro-3,5-dimethylphenyl)-3-[3-(6-fluoro-1-methylindazol-5-yl)-2-oxoimidazol-1-yl]-4-methyl-6,7-dihydro-4H-pyrazolo[4,3-c]pyridine-5-carbonyl]-5-(oxan-4-yl)indol-1-yl]-2-methylcyclopropyl]-4H-1,2,4-oxadiazol-5-one] showed an EC50 of 2.3 nM.
`CCc1nccc(-c2ccc3c(c2)cc(C(=O)N2CCc4nn(-c5cc(C)c(F)c(C)c5)c(-n5ccn(-c6ccc7c(cnn7C)c6)c5=O)c4[C@@H]2C)n3[C@@]2(c3noc(=O)[nH]3)C[C@@H]2C)c1C` [compound 73, 3-[(1S,2S)-1-[5-(2-ethyl-3-methylpyridin-4-yl)-2-[(4S)-2-(4-fluoro-3,5-dimethylphenyl)-4-methyl-3-[3-(1-methylindazol-5-yl)-2-oxoimidazol-1-yl]-6,7-dihydro-4H-pyrazolo[4,3-c]pyridine-5-carbonyl]indol-1-yl]-2-methylcyclopropyl]-4H-1,2,4-oxadiazol-5-one] was tested, and the EC50 was 2.5 nM.
`CCc1nccc(-c2ccc3c(c2)cc(C(=O)N2CCc4nn(-c5cc(C)c(F)c(C)c5)c(-n5ccn(-c6ccc(OC)c(F)c6)c5=O)c4C2)n3[C@@]2(c3noc(=O)[nH]3)C[C@@H]2C)c1C` [Example 4] was tested, and the EC50 was 12 nM.
`Cc1cc(-n2nc3c(c2-n2ccn(-c4ccc5c(cnn5C)c4F)c2=O)[C@H](C)N(C(=O)c2cc4cc([C@H]5CCO[C@@H](C)C5)ccc4n2[C@@]2(c4noc(=O)[nH]4)C[C@@H]2C)CC3)cc(C)c1F` [Example 41, 3-[(1S,2S)-1-[2-[(4S)-2-(4-fluoro-3,5-dimethylphenyl)-3-[3-(4-fluoro-1-methylindazol-5-yl)-2-oxoimidazol-1-yl]-4-methyl-6,7-dihydro-4H-pyrazolo[4,3-c]pyridine-5-carbonyl]-5-[(2S,4S)-2-methyloxan-4-yl]indol-1-yl]-2-methylcyclopropyl]-4H-1,2,4-oxadiazol-5-one] showed an EC50 of 2.4 nM.
With `Cc1cc(-n2nc3c(c2-n2ccn(-c4ccc5c(cnn5[C@@H]5CCOC5)c4)c2=O)CN(C(=O)c2cc4cc(C5CCOCC5)ccc4n2[C@@]2(c4noc(=O)[nH]4)C[C@@H]2C)CC3)cc(C)c1F` [Example 8, 3-[(1S,2S)-1-[2-[2-(4-fluoro-3,5-dimethylphenyl)-3-[2-oxo-3-[1-[(3R)-oxolan-3-yl]indazol-5-yl]imidazol-1-yl]-6,7-dihydro-4H-pyrazolo[4,3-c]pyridine-5-carbonyl]-5-(oxan-4-yl)indol-1-yl]-2-methylcyclopropyl]-4H-1,2,4-oxadiazol-5-one] the EC50 was 2.5 nM.
Compound `COc1nccc(-c2cc3cc(C(=O)N4CCc5nn(-c6cc(C)c(F)c(C)c6)c(-n6ccn(-c7ccc8c(cnn8C)c7)c6=O)c5[C@@H]4C)n([C@@]4(c5noc(=O)[nH]5)C[C@@H]4C)c3cc2F)c1C` [compound 74, 3-[(1S,2S)-1-[6-Fluoro-2-[(4S)-2-(4-fluoro-3,5-dimethylphenyl)-4-methyl-3-[3-(1-methylindazol-5-yl)-2-oxoimidazol-1-yl]-6,7-dihydro-4H-pyrazolo[4,3-c]pyridine-5-carbonyl]-5-(2-methoxy-3-methylpyridin-4-yl)indol-1-yl]-2-methylcyclopropyl]-4H-1,2,4-oxadiazol-5-one] has an EC50 of 6.2 nM.
Work on `COCCn1ncc2cc(-n3ccn(-c4c5c(nn4-c4cc(C)c(F)c(C)c4)CCN(C(=O)c4cc6cc(C7CCOCC7)ccc6n4[C@@]4(c6noc(=O)[nH]6)C[C@@H]4C)[C@H]5C)c3=O)ccc21` [Example 16, 3-[(1S,2S)-1-[2-[(4S)-2-(4-fluoro-3,5-dimethylphenyl)-3-[3-[1-(2-methoxyethyl)indazol-5-yl]-2-oxoimidazol-1-yl]-4-methyl-6,7-dihydro-4H-pyrazolo[4,3-c]pyridine-5-carbonyl]-5-(oxan-4-yl)indol-1-yl]-2-methylcyclopropyl]-4H-1,2,4-oxadiazol-5-one] yielded an EC50 of 0.51 nM.
`COCCn1ncc2cc(-n3ccn(-c4c5c(nn4-c4cc(C)c(F)c(C)c4)CCN(C(=O)c4cc6cc(C7CCOCC7)cc(F)c6n4[C@@]4(c6noc(=O)[nH]6)C[C@@H]4C)[C@H]5C)c3=O)ccc21` [compound 63, 3-[(1S,2S)-1-[7-fluoro-2-[(4S)-2-(4-fluoro-3,5-dimethylphenyl)-3-[3-[1-(2-methoxyethyl)indazol-5-yl]-2-oxoimidazol-1-yl]-4-methyl-6,7-dihydro-4H-pyrazolo[4,3-c]pyridine-5-carbonyl]-5-(oxan-4-yl)indol-1-yl]-2-methylcyclopropyl]-4H-1,2,4-oxadiazol-5-one] showed an EC50 of 1.1 nM.
For `Cc1cc(-n2nc3c(c2-n2ccn(-c4ccc5c(cnn5CC(F)(F)F)c4F)c2=O)[C@H](C)N(C(=O)c2cc4cc(C5CCOCC5)ccc4n2[C@@]2(c4noc(=O)[nH]4)C[C@@H]2C)CC3)cc(C)c1Cl` [Example 44, 3-[(1S,2S)-1-[2-[(4S)-2-(4-chloro-3,5-dimethylphenyl)-3-[3-[4-fluoro-1-(2,2,2-trifluoroethyl)indazol-5-yl]-2-oxoimidazol-1-yl]-4-methyl-6,7-dihydro-4H-pyrazolo[4,3-c]pyridine-5-carbonyl]-5-(oxan-4-yl)indol-1-yl]-2-methylcyclopropyl]-4H-1,2,4-oxadiazol-5-one], the EC50 was 1.5 nM.
`Cc1cc(-n2nc3c(c2-n2ccn(-c4ccc5c(cnn5C)c4)c2=O)CN(C(=O)c2cc4cc(C5CCOCC5)ccc4n2[C@@]2(c4noc(=O)[nH]4)C[C@@H]2C)CC3)cc(C)c1Cl` [compound 55, 3-[(1S,2S)-1-[2-[2-(4-chloro-3,5-dimethylphenyl)-3-[3-(1-methylindazol-5-yl)-2-oxoimidazol-1-yl]-6,7-dihydro-4H-pyrazolo[4,3-c]pyridine-5-carbonyl]-5-(oxan-4-yl)indol-1-yl]-2-methylcyclopropyl]-4H-1,2,4-oxadiazol-5-one] was tested, and the EC50 was 3.7 nM.
